Assay results published in patent publication US20250108119A1, “NOVEL STEROID PAYLOADS, STEROID LINKERS, ADCs CONTAINING AND USE THEREOF” (IMMUNEXT, INC., priority 2021, published 2025).
“Also recorded” adds a separate entry of the source.

T1: hIX50 (human VISTA ECD, produced at Aragen Bioscience) (human, UniProt Q9H7M9 33-194, biotinylated in the pH ELISA (sites not given))
T1 construct: also called hINX50; soluble VISTA
T1 sequence: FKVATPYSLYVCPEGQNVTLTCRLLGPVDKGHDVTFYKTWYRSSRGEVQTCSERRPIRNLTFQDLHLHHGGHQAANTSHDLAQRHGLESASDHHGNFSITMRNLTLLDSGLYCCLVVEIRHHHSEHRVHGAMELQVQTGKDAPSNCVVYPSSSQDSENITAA


Columns and labels:
[1] = Plasma corticosterone after repeated treatment; assay type: in vivo, hVISTA KI mice; conditions: Dex 2 or 0.2 mg/Kg daily for 4 days; INX201J 10 or 3 mg/Kg (0.2 or 0.06 mg/Kg of payload) on days 1, 3 and 4
Protocol: On day 5, mice were bled and their corticosterone levels assessed by ELISA.
The experiment was performed in female hVISTA KI mice. […] A control group was included that received daily PBS injections. On day 5, mice were bled and their plasma corticosterone levels assessed by ELISA.
The ELISA was conducted following the manufacturer's included protocol using Arbor Assays (cat #K014-H5) Corticosterone 5 pack ELISA Kit.

[2] = tested on: steroid responsive genes in bone (Fkpb5, RANKL, ddit4, Fam107a); experiment: Steroid responsive gene transcription in bone (RNAseq); assay type: in vivo, mouse; conditions: Dex 2 mg/Kg i.p., 2h
Description: In the figure Fkpb5 is shown on the left, RANKL the middle left, ddit4 the middle right and Fam107a on the extreme right.

[3] = tested on: steroid responsive genes in bone; experiment: RNAseq of mouse bones after treatment; conditions: INX231P 10 mg/Kg i.p. 20h (hVISTA KI); Dex 2 mg/Kg 2h (C57BI/6)
[4] = Payload accumulation in cynomolgus tissues (LC-MS/MS); conditions: single i.v.; INX234P 10 mg/kg, dexamethasone 2 mg/kg
[5] = tested on: transferred naïve CD4 T cells from hVISTA KI mice; experiment: T cell transfer colitis model; assay type: in vivo, Rag1-/- mice
Protocol: After >21 days, animals slowly start to lose weight and decreases in circulating naïve T cells are observed. In this model, the ADC targets only the transferred cells while the free GC can act on both transferred and host cells.
In EXPERIMENT 1, mice were treated with INX234P at 10 mg/Kg starting on day 0 and then once a week. […] In EXPERIMENT 1 treatment was initiated on day 0 (prophylactic) and terminated on day 61, whereas in EXPERIMENT 2 treatment was initiated on day 21 (or therapeutic) and remains ongoing at the time of this filing.
In both experiments, all treatments were administered once a week.
For EXPERIMENT 1, INX234P treatment was initiated on day 0 (or prophylactic) after naïve CD4 T cell transfer and terminated on day 61.
Naïve CD4 T cells were isolated from hVISTA KI spleen using an EasySep™ Mouse Naïve CD4+ T cell Isolation kit from StemCell (catalog #19765) following manufacturer instruction.
Following the protocol of Ostanin et al (2008), […] naïve CD45RB+, CD4+ T cells were injected i.p. on day 0
10 ml of antibody cocktail (see table on the right) was directly added to […] of blood. After 30 min incubation at room temperature (RT), 600 ml BD FACS lysis buffer was added to the sample. After 30 min incubation at RT, samples were spun at 550 rcf for 5 min, washed once in PBS, and then resuspended in a fixed volume of PBS. […]

[6] = target: T1, hIX50 (human VISTA ECD, produced at …); experiment: ELISA: hIX50 coated at 1 ug/mL; antibody titrated in PBS/Tween/BSA; mouse anti-human kappa-HRP/TMB; OD 450 nm.
[7] = target: T1, hIX50 (human VISTA ECD, produced at …); experiment: ELISA at pH 7.5: INX200 coated at 1 ug/mL; biotinylated hIX50 titrated at 0.001-1000 ng/mL; streptavidin-HRP/TMB; OD 450 nm. The value is a concentration of hIX50.

EC50 (read off the curve) [6]	EC50 (read off the curve) [7]	Molecule	basal plasma corticosterone levels on day 5 [1]	impact on steroid responsive genes in bone [2]	FKBP5 in bone (RNAseq) [3]	accumulated compound in tissues at 24h (ng of compound/g of tissue) [4]	mice that had to be sacrificed ([5]; EXPERIMENT 1: high Dex (2 mg/Kg), 2 out of 10)	median survival ([5]; EXPERIMENT 1: once a week day 0 to day 61, unconjugated INX234 10 mg/Kg, low Dex 0.2 mg/Kg)
–	–	C[C@@H]1C[C@H]2[C@@H]3CCC4=CC(=O)C=C[C@]4(C)[C@@]3(F)[C@@H](O)C[C@]2(C)[C@@]1(O)C(=O)CO [Dex, dexamethasone]	Dex at 2 mg/Kg dramatically decreased basal corticosterone levels; also recorded: only limited though significant impact at 0.2 mg/Kg	significantly impacted	robust FKBP5 induction	little accumulated free dexamethasone at 24h in any tissue	20%	72.5 days
~8 ng/mL	~0.7 ng/mL	INX200 (antibody, human IgG1, V domains shown, also called humanized anti-human VISTA antibody on a human IgG1/kappa backbone with L234A/L235A silencing mutations) VH: QVQLVQSGAEVKKPGASVKVSCKASGYTFANYLIGWVRQAPGQRLEWMGDIYPGGGFISYNEKFKGRVTITRDTSASTAYMELSSLRSEDTAVYYCARRFDYGGYFFDYWGQGTLVTVSS VL: DIVMTQSPLSLPVTPGEPASISCRSSQSIVHSNGNIYLEWYLQKPGQSPQLLIYKVSNRFSGVPDRFSGSGSGTDFTLKISRVEAEDVGVYYCFQGSHVPWTFGQGTKLEIK	–	–	–	–	–	–
